Values of other authors, collected in patent US20200315935A1, “TOPICALLY APPLICABLE CHEMICAL PEEL COMPOSITION” (L'OREAL, priority 2015, published 2020).
Read-outs that look alike come from different tables or passages of the source.

How the values were obtained:
[1] = acute oral toxicity, mutagenicity, skin irritation, skin sensitization, and phototoxicity

Structure (SMILES) | adverse effects in basic toxicological tests ([1]; listed as Phenylethyl resorcinol) | adverse effects in basic toxicological tests ([1]; listed as phenylethyl resorcinol) | pKA
CC(c1ccccc1)c1ccc(O)cc1O (stereo not shown) [Phenylethyl Resorcinol] | not shown adverse effects | not been shown to have adverse effects | 9.77-10.77
Oc1cccc(O)c1 [Resorcinol, reference compound] | – | – | 9.32-9.81
